Measurements published in PMC10893103, “Cyclodextrin-Enabled Enantioselective Complexation Study of Cathinone Analogs” (Molecules, 2024).

assay: Affinity capillary electrophoresis (ACE), pH 7.4; details: 30 mM phosphate buffer pH 7.4, 25 °C, 15 kV
Source text: To assess the CD complex formation capability of the five cathinone derivatives, we devised a screening ACE method tailored to closely mimic physiological conditions. In a preliminary study, the ACE conditions were optimized regarding the type, pH, and concentration of the background electrolyte, the applied voltage, and the injection parameters. […] In order to avoid high Joule heat generation, sufficiently low voltage should be used; thus, after registering the Ohm plot (I-U plot), it was set to 15 kV. Throughout our ACE measurements, corrections for viscosity and ionic strength were systematically implemented to ensure precise determination of complex stability constants.
The CE experiments were performed on a HP ^3DCE and on an Agilent 7100 instrument (Agilent Technologies, Waldbronn, Germany) equipped with a photodiode array detector and the Chemstation software for data handling. Untreated fused silica capillaries (50 µm id, 48.5 cm total, 40 cm effective length) were purchased from Agilent. Conditioning of new capillary was conducted by flushing with 1 M NaOH followed by 0.1 M NaOH and water for 30 min each. Prior to all runs, the capillary was preconditioned by rinsing with BGE (2 min). The temperature of the capillary was set to 25 °C. UV detection was performed at 215 nm, and 15–25 kV voltage was applied. Samples were injected hydrodynamically (150 mbar·sec, optimized in the 50–500 mbar·sec range). The CE-pH measurements were carried out applying 25 kV voltage and 200 mbar·sec injection.
The background electrolyte of the CE-pH measurements contained 25 mM Na2HPO4 and 25 mM Na2B4O7, and the appropriate pH was adjusted with hydrochloric acid. During the ACE measurements, 30 mM phosphate buffer pH 7.4 (30 mM Na2HPO4—NaOH) was used. The running buffer was 20 mM acetic acid adjusting with 1 M Tris the pH to 4.5 during the chiral screening experiments. The BGEs contained CDs at various concentrations (0.25–20 mM) in the ACE experiments and 1-5-10 mM in the chiral method optimization experiments.
Stock solutions of each cathinone analog (mephedrone, flephedrone, 4-MEC, butylone, and MDPV) were prepared separately in methanol (1 mg/ml), and appropriate dilutions with water were used to prepare sample solutions for the CE-pH titration and for the ACE studies applying DMSO as EOF marker, while their mixture was used during the chiral separation studies.
The simplest way to determine the mobility is from the migration times (tmax) read from the electropherograms from which the apparent mobility could be calculated, but more accurate mobility values could be obtained by the determination with the Haarhoff–van der Linde (HVL) function based on Equation (2). (2) HVLδ(t;a0,a1,a2,a3δ)=a0/a2a3δ2πexp[−1/2(t−a1/a2)^2]/1/exp(a3δ)−1+1/2[1+erf(t−a1/2a2)] where a0 is the area of the HVL function, a1 is the position of the Gaussian component, a2 is the standard deviation of the Gaussian component, and a3δ is the peak shape distortion. The application of the HVL function is necessary in the case of accurate ACE measurements because, in several cases, the peaks are distorted due to the complex formation, which makes reading the migration times and calculating the mobility more difficult and imprecise.
The most popular technique for quantifying the analyte–ligand interaction with CE is mobility shift ACE.

Substance | 4-MEC–CD complex stability constant, Kstab2 (second migrating enantiomer) | 4-MEC–CD complex stability constant, Kstab/Kstab1 (unresolved or first migrating enantiomer) | Flephedrone–CD complex stability constant, Kstab2 (second migrating enantiomer) | Flephedrone–CD complex stability constant, Kstab/Kstab1 (unresolved or first migrating enantiomer) | Mephedrone–CD complex stability constant, Kstab2 (second migrating enantiomer) | Mephedrone–CD complex stability constant, Kstab/Kstab1 (unresolved or first migrating enantiomer) | Butylone–CD complex stability constant, Kstab2 (second migrating enantiomer) | Butylone–CD complex stability constant, Kstab/Kstab1 (unresolved or first migrating enantiomer) | MDPV–CD complex stability constant, Kstab2 (second migrating enantiomer) | MDPV–CD complex stability constant, Kstab/Kstab1 (unresolved or first migrating enantiomer)
carboxymethylated-β-CD [CM-β-CD] | 725 ± 45 M⁻¹ | 620 ± 40 M⁻¹ | 225 ± 10 M⁻¹ | 190 ± 10 M⁻¹ | 615 ± 25 M⁻¹ | 610 ± 30 M⁻¹ | – | – | – | –
carboxymethylated-γ-CD [CM-γ-CD] | 70 ± 10 M⁻¹ | 65 ± 8 M⁻¹ | 30 ± 5 M⁻¹ | 50 ± 9 M⁻¹ | 60 ± 10 M⁻¹ | 50 ± 8 M⁻¹ | 170 ± 10 M⁻¹ | 140 ± 10 M⁻¹ | 170 ± 17 M⁻¹ | 160 ± 15 M⁻¹
dimethylated-β-CD [DIME-β-CD] | 270 ± 25 M⁻¹ | 210 ± 20 M⁻¹ | – | 60 ± 6 M⁻¹ | – | 150 ± 15 M⁻¹ | – | – | – | –
hydroxypropylated-β-CD [HP-β-CD] | – | 80 ± 5 M⁻¹ | – | 15 ± 3 M⁻¹ | – | 60 ± 4 M⁻¹ | – | 170 ± 10 M⁻¹ | – | 255 ± 10 M⁻¹
hydroxypropylated-γ-CD [HP-γ-CD] | – | 40 ± 4 M⁻¹ | – | 220 ± 35 M⁻¹ | – | 25 ± 3 M⁻¹ | – | 40 ± 5 M⁻¹ | – | 50 ± 10 M⁻¹
phosphated-β-CD [Phos-β-CD] | – | – | 440 ± 35 M⁻¹ | 330 ± 20 M⁻¹ | – | – | – | – | – | 870 ± 60 M⁻¹
randomly methylated-β-CD [RAME-β-CD] | – | 140 ± 7 M⁻¹ | – | 40 ± 5 M⁻¹ | – | 100 ± 5 M⁻¹ | 350 ± 15 M⁻¹ | 325 ± 15 M⁻¹ | – | 585 ± 35 M⁻¹
succinyl-β-CD [Succ-β-CD (DS~4)] | – | – | – | – | – | – | 30,500 ± 5300 M^−1 | 13,500 ± 1350 M^−1 | 10,600 ± 35 M^−1 | 12,100 ± 2150 M^−1
sulfated-β-CD [S-β-CD] | – | – | – | 860 ± 100 M⁻¹ | – | – | – | – | – | –
sulfated-γ-CD [S-γ-CD] | – | 290 ± 30 M⁻¹ | – | – | – | 160 ± 15 M⁻¹ | – | 960 ± 95 M⁻¹ | – | 250 ± 55 M⁻¹
sulfo(2-hydroxy)propylated-β-CD [SHP-β-CD] | 300 ± 25 M⁻¹ | 250 ± 20 M⁻¹ | – | 60 ± 10 M⁻¹ | 300 ± 20 M⁻¹ | 230 ± 20 M⁻¹ | – | 620 ± 35 M⁻¹ | 910 ± 55 M⁻¹ | 800 ± 65 M⁻¹
sulfo(2-hydroxy)propylated-γ-CD [SHP-γ-CD] | 25 ± 5 M⁻¹ | 30 ± 7 M⁻¹ | – | 45 ± 80 M⁻¹ | < 10 M⁻¹ | 15 ± 5 M⁻¹ | 70 ± 7 M⁻¹ | 30 ± 5 M⁻¹ | – | –
sulfobutyl-ether-α-CD [SBE-α-CD] | 610 ± 55 M⁻¹ | 450 ± 45 M⁻¹ | – | – | 565 ± 80 M⁻¹ | 430 ± 70 M⁻¹ | 530 ± 100 M⁻¹ | 220 ± 20 M⁻¹ | 550 ± 90 M⁻¹ | 580 ± 80 M⁻¹
sulfobutyl-ether-β-CD [SBE-β-CD (DS~4)] | 550 ± 40 M⁻¹ | 560 ± 60 M⁻¹ | – | 175 ± 25 M⁻¹ | 325 ± 60 M⁻¹ | 300 ± 60 M⁻¹ | – | – | – | –
sulfobutyl-ether-β-CD [SBE-β-CD (DS~6.5)] | 660 ± 35 M⁻¹ | 560 ± 35 M⁻¹ | 200 ± 12 M⁻¹ | 200 ± 20 M⁻¹ | 500 ± 40 M⁻¹ | 500 ± 20 M⁻¹ | – | – | – | –
sulfobutyl-ether-γ-CD [SBE-γ-CD] | – | < 10 M⁻¹ | – | 100 ± 5 M⁻¹ | 65 ± 12 M⁻¹ | 70 ± 15 M⁻¹ | 100 ± 15 M⁻¹ | 95 ± 15 M⁻¹ | – | 160 ± 20 M⁻¹
sulfopropylated-β-CD [SP-β-CD (DS~2)] | – | 440 ± 25 M⁻¹ | – | 140 ± 12 M⁻¹ | – | 390 ± 20 M⁻¹ | – | 710 ± 45 M⁻¹ | – | –
